Laboratory results from patent US8642788B2, “Activators of executioner procaspases 3, 6 and 7” (The Regents of the University of California, priority 2008, dated 2014).
Like-named read-outs stand apart in the source and are kept apart here.

Columns and labels:
Format in all cases: biochemical
procaspase-7 = target: T1, procaspase-7 (Homo sapiens, UniProt P55210); assay: Executioner procaspase-7 activation assay (Ac-DEVD-AFC fluorogenic substrate); settings: incubation with compound for 5 h at 37° C.; 100 nM procaspase
T1 construct: His6 (C); made in house; host or cells: E. coli BL21(DE3)RP, pET-21b
T1 sequence (P55210 1-303): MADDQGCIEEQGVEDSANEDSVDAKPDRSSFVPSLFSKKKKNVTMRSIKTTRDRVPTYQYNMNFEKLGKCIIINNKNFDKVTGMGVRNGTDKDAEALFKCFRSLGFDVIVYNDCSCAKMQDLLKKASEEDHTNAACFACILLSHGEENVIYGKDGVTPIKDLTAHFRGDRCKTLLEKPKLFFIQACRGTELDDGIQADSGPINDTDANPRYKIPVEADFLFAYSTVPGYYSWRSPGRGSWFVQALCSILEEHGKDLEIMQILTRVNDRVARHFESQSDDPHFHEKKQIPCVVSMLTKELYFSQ
Outline: (§1)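 Procaspase at 100 nM incubated with compound (100 nM–100 μM) in 50 mM HEPES pH 7.4, KCl, DTT, 0.01% Triton X-100, 3% DMSO, 37 °C for 5 h; then 25 μM Ac-DEVD-AFC (procaspase-7) or Ac-VEID-AFC (procaspase-6), kinetic fluorescence 30 min (ex 365/em 495); EC50 reported.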

procaspase-3 = target: T2, procaspase-3 (Homo sapiens, UniProt P42574); assay: Executioner procaspase-3 activation assay (Ac-DEVD-AFC fluorogenic substrate)
T2 construct: His6 (C); made in house; host or cells: E. coli BL21(DE3)RP, pET-23b
T2 sequence (P42574 1-277): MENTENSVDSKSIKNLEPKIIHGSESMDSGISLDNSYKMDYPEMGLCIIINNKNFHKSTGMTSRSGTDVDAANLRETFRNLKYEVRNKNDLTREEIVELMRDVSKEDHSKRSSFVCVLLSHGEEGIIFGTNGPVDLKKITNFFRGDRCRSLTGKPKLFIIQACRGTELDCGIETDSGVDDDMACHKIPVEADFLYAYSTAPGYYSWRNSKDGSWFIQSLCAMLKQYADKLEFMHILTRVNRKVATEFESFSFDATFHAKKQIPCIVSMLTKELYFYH
Outline: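 Procaspase-3 at 100 nM was incubated with activating compounds (100 nM to 100 uM) in 50 mM HEPES pH 7.4, 50 mM KCl, 1 mM DTT and 0.01% Triton-X100, the detergent limiting aggregation artefacts. Protein, substrate and inhibitor were kept as frozen aliquots and thawed just before use.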

procaspase-6 = target: T3, procaspase-6 (Homo sapiens, UniProt P55212); assay: Executioner procaspase-6 activation assay (Ac-VEID-AFC fluorogenic substrate); settings: incubation with compound for 5 h at 37° C.; 100 nM procaspase
T3 sequence (P55212 1-293): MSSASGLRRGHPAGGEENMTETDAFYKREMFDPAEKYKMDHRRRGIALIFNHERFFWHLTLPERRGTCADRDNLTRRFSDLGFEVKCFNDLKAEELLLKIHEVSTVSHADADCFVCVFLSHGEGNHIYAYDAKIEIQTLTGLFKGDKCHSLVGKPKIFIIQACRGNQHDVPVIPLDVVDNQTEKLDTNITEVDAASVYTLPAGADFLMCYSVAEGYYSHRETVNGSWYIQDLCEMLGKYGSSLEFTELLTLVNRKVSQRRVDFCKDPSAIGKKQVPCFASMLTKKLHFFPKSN
Outline: as §1

[1] = incubation with compound for 5 h at 37° C., 100 nM procaspase, read-out: Procaspase Activation 3

SMILES | EC50 (procaspase-7) [µM] | EC50 (procaspase-3; [1]) [µM] | EC50 (procaspase-6) [µM] | EC50 (procaspase-3) [µM]
O=C(Nc1cccc(-c2ccc3c(c2)OCCO3)c1)c1cc2cccc(O)c2oc1=O [compound 86, 8-Hydroxy-2-oxo-2H-chromene-3-carboxylic acid [3-(2,3-dihydro-benzo[1,4]dioxin-6-yl)-phenyl]-amide] | > 100 | > 100 | > 100 | 
COc1cccc2cc(C(=O)Nc3cccc(-c4ccc5c(c4)OCCO5)c3)c(=O)oc12 [compound 87, 8-Methoxy-2-oxo-2H-chromene-3-carboxylic acid [3-(2,3-dihydro-benzo[1,4]dioxin-6-yl)-phenyl]-amide] | > 100 | > 100 | > 100 | 
O=C(Nc1cccc(-c2ccc3c(c2)OCCO3)c1)c1cc2cccc(OC(F)(F)F)c2oc1=O [compound 88, 8-Trifluoromethoxy-2-oxo-2H-chromene-3-carboxylic acid [3-(2,3-dihydro-benzo[1,4]dioxin-6-yl)-phenyl]-amide] | > 100 | > 100 | > 100 | 
N#Cc1ccccc1-c1cccc(NC(=O)c2cc3cccc(O)c3oc2=O)c1 [compound 89, 8-Hydroxy-2-oxo-2H-chromene-3-carboxylic acid (2′-cyano-biphenyl-3-yl)-amide] | > 100 | > 100 | > 100 | 
COc1cccc2cc(C(=O)Nc3cccc(-c4ccccc4C#N)c3)c(=O)oc12 [compound 90, 8-Methoxy-2-oxo-2H-chromene-3-carboxylic acid (2′-cyano-biphenyl-3-yl)-amide] | > 100 | > 100 | > 100 | 
N#Cc1ccccc1-c1cccc(NC(=O)c2cc3cccc(OC(F)(F)F)c3oc2=O)c1 [compound 91, 8-Trifluoromethoxy-2-oxo-2H-chromene-3-carboxylic acid (2′-cyano-biphenyl-3-yl)-amide] | > 100 | > 100 | > 100 | 
O=C(Nc1cccc(-c2ccc3[nH]ccc3c2)c1)c1cc2cccc(O)c2oc1=O [compound 92, 8-Hydroxy-2-oxo-2H-chromene-3-carboxylic acid (3-(1H-Indol-5-yl)-phenyl)-amide] | > 100 |  | > 100 | > 100
COc1cccc2cc(C(=O)Nc3cccc(-c4ccc5[nH]ccc5c4)c3)c(=O)oc12 [compound 93, 8-Methoxy-2-oxo-2H-chromene-3-carboxylic acid (3-(1H-Indol-5-yl)-phenyl)-amide] | > 100 |  | > 100 | > 100
O=C(Nc1cccc(-c2ccc3[nH]ccc3c2)c1)c1cc2cccc(OC(F)(F)F)c2oc1=O [compound 94, 8-Trifluoromethoxy-2-oxo-2H-chromene-3-carboxylic acid (3-(1H-Indol-5-yl)-phenyl)-amide] | > 100 |  | > 100 | > 100
CC(=O)Nc1ccccc1-c1cccc(NC(=O)c2cc3cccc(O)c3oc2=O)c1 [compound 95, 8-Hydroxy-2-oxo-2H-chromene-3-carboxylic acid (2′-acetylamino-biphenyl-3-yl)-amide] | > 100 | > 100 | > 100 | 
COc1cccc2cc(C(=O)Nc3cccc(-c4ccccc4NC(C)=O)c3)c(=O)oc12 [compound 96, 8-Methoxy-2-oxo-2H-chromene-3-carboxylic acid (2′-acetylamino-biphenyl-3-yl)-amide] | > 100 | > 100 | > 100 | 
CC(=O)Nc1ccccc1-c1cccc(NC(=O)c2cc3cccc(OC(F)(F)F)c3oc2=O)c1 [compound 97, 8-Trifluoromethoxy-2-oxo-2H-chromene-3-carboxylic acid (2′-acetylamino-biphenyl-3-yl)-amide] | > 100 | > 100 | > 100 | 
O=C(Nc1cccc(-c2ccccc2S(=O)(=O)N2CCOCC2)c1)c1cc2cccc(O)c2oc1=O [compound 98, 8-Hydroxy-2-oxo-2H-chromene-3-carboxylic acid (2′-(Morpholine-4-sulfonyl)-biphenyl-3-yl)-amide] | 10 to 50 | 10 to 50 | > 100 | 
COc1cccc2cc(C(=O)Nc3cccc(-c4ccccc4S(=O)(=O)N4CCOCC4)c3)c(=O)oc12 [compound 99, 8-Methoxy-2-oxo-2H-chromene-3-carboxylic acid (2′-(Morpholine-4-sulfonyl)-biphenyl-3-yl)-amide] | > 100 | > 100 | > 100 | 
O=C(Nc1cccc(-c2ccccc2S(=O)(=O)N2CCOCC2)c1)c1cc2cccc(OC(F)(F)F)c2oc1=O [compound 100, 8-Trifluoromethoxy-2-oxo-2H-chromene-3-carboxylic acid (2′-(Morpholine-4-sulfonyl)-biphenyl-3-yl)-amide] | > 100 | > 100 | > 100 | 
COc1ncc(-c2cccc(NC(=O)c3cc4cccc(O)c4oc3=O)c2)c(OC)n1 [compound 127, 8-Hydroxy-2-oxo-2H-chromene-3-carboxylic acid [3-(2,4-dimethoxy-pyrimidin-5-yl)-phenyl]-amide] | > 100 | > 100 | > 100 | 
COc1ncc(-c2cccc(NC(=O)c3cc4cccc(OC)c4oc3=O)c2)c(OC)n1 [compound 128, 8-Methoxy-2-oxo-2H-chromene-3-carboxylic acid [3-(2,4-dimethoxy-pyrimidin-5-yl)-phenyl]-amide] | > 100 | > 100 | > 100 | 
COc1ccc(-c2cccc(NC(=O)c3cc4cccc(O)c4oc3=O)c2)cn1 [compound 129, 8-Hydroxy-2-oxo-2H-chromene-3-carboxylic acid [3-(6-methoxy-pyridin-3-yl)-phenyl]-amide] | > 100 | > 100 | > 100 | 
COc1ccc(-c2cccc(NC(=O)c3cc4cccc(OC)c4oc3=O)c2)cn1 [compound 130, 8-Methoxy-2-oxo-2H-chromene-3-carboxylic acid [3-(6-methoxy-pyridin-3-yl)-phenyl]-amide] | > 100 | > 100 | > 100 | 
COc1cncc(-c2cccc(NC(=O)c3cc4cccc(O)c4oc3=O)c2)c1 [compound 131, 8-Hydroxy-2-oxo-2H-chromene-3-carboxylic acid [3-(5-methoxy-pyridin-3-yl)-phenyl]-amide] | > 100 | > 100 | > 100 | 
COc1cncc(-c2cccc(NC(=O)c3cc4cccc(OC)c4oc3=O)c2)c1 [compound 132, 8-Methoxy-2-oxo-2H-chromene-3-carboxylic acid [3-(5-methoxy-pyridin-3-yl)-phenyl]-amide] | > 100 | > 100 | > 100 | 
COc1ncc(-c2cccc(NC(=O)c3cc4cccc(O)c4oc3=O)c2)cn1 [compound 133, 8-Hydroxy-2-oxo-2H-chromene-3-carboxylic acid [3-(2-methoxy-pyrimidin-5-yl)-phenyl]-amide] | > 100 | > 100 | > 100 | 
COc1ncc(-c2cccc(NC(=O)c3cc4cccc(OC)c4oc3=O)c2)cn1 [compound 134, 8-Methoxy-2-oxo-2H-chromene-3-carboxylic acid [3-(2-methoxy-pyrimidin-5-yl)-phenyl]-amide] | > 100 | > 100 | > 100 | 
O=C(Nc1cccc(-c2cncnc2)c1)c1cc2cccc(O)c2oc1=O [compound 135, 8-Hydroxy-2-oxo-2H-chromene-3-carboxylic acid (3-pyrimidin-5-yl-phenyl)-amide] | > 100 | > 100 | > 100 | 
COc1cccc2cc(C(=O)Nc3cccc(-c4cncnc4)c3)c(=O)oc12 [compound 136, 8-Methoxy-2-oxo-2H-chromene-3-carboxylic acid (3-pyrimidin-5-yl-phenyl)-amide] | > 100 | 50 to 200 | 50 to 200 | 
